Test results taken from paper PMC10628242, “Enzymatic β-elimination in natural product O- and C-glycoside deglycosylation” (Nature Communications, 2023).

Molecular target: T1, PuCGE (human intestinal bacterium PUE, UniProt A0A3Q9WUX0+A0A3Q9WXL1, A0A3Q9WUX0:Y39F)
T1 construct: gene dgpC; heterodimer alpha (39,205 Da) + beta (18,313 Da), co-expressed from pET-Duet-1 in E. coli; N-terminal Strep-tag II; Mn2+ enzyme
T1 sequence (A0A3Q9WXL1 1-324): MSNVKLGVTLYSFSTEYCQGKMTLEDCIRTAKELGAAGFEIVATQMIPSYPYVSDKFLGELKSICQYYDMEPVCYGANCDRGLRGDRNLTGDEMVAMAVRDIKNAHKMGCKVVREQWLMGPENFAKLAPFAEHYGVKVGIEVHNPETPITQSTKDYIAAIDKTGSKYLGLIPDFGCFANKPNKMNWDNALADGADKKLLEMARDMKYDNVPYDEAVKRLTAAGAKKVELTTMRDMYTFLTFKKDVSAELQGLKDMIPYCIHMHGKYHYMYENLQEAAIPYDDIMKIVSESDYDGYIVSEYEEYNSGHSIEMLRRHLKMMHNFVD
T1 sequence (A0A3Q9WUX0 1-142 Y39F): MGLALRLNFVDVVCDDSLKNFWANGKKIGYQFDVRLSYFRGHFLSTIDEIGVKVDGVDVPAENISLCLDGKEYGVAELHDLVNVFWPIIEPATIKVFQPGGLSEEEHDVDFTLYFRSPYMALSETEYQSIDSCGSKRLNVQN
Experiment: HPLC of aglycone release
Format: biochemical
Conditions: 2.0 mM substrate; potassium phosphate pH 6.0, 37 °C; text puts Tyr39 in beta, plasmid name puts Y39F on alpha

## O=C(CCc1ccc(O)cc1)c1c(O)cc(O)cc1O[C@@H]1O[C@H](CO)[C@@H](O)C(=O)[C@H]1O [3-keto-phlorizin, 3,5-dihydroxy-2-[3-(4-hydroxyphenyl)-1-oxopropyl]phenyl β-D-ribo-hexopyranosid-3-ulose]
  HPLC of aglycone release: The mutated PuCGE exhibits only a minor loss of 3-keto-phlorizin activity
